In ChEMBL document CHEMBL5308504, “Tm Shift (DSF) assay results for EUbOPEN Chemogenomics Library” (2023):
“And” between values parts separate entries of the source, which are not always exact repeats. Identical values can stand only once. Numbered stars: 1 amine (or outer) side, 2 acyl side, 3 side chain; on linkers, the order of the positions; unused ones are H or OH. Bridge positions count the residues as written; N and C are the ends. Square brackets hold non-standard residues; d marks the D form. Peptide text beside a SMILES is read from it. I, II: the chains in the order shown. Hexamethylenediamine = C(CCCN[*:2])CCN[*:1]; Dip = N[C@H](C(=O)O)C(c1ccccc1)c1ccccc1; Chg = N[C@H](C(=O)O)C1CCCCC1; NMeA = CN[C@@H](C)C(=O)O

Experiments:
[1] = target: Fibroblast growth factor receptor 3 (Homo sapiens) (UniProt P22607); details: Compound concentration 20.0 uM, Protein concentration 2.0 uM, Result type QC Liability
Description: Thermal Shift Assay. Domain: start/stop: P449-E759

[2] = target: T1, Peregrin (Homo sapiens) (UniProt P55201); details: Compound concentration 20.0 uM, Protein concentration 2.0 uM, Result type QC Liability
T1 sequence (whole entry): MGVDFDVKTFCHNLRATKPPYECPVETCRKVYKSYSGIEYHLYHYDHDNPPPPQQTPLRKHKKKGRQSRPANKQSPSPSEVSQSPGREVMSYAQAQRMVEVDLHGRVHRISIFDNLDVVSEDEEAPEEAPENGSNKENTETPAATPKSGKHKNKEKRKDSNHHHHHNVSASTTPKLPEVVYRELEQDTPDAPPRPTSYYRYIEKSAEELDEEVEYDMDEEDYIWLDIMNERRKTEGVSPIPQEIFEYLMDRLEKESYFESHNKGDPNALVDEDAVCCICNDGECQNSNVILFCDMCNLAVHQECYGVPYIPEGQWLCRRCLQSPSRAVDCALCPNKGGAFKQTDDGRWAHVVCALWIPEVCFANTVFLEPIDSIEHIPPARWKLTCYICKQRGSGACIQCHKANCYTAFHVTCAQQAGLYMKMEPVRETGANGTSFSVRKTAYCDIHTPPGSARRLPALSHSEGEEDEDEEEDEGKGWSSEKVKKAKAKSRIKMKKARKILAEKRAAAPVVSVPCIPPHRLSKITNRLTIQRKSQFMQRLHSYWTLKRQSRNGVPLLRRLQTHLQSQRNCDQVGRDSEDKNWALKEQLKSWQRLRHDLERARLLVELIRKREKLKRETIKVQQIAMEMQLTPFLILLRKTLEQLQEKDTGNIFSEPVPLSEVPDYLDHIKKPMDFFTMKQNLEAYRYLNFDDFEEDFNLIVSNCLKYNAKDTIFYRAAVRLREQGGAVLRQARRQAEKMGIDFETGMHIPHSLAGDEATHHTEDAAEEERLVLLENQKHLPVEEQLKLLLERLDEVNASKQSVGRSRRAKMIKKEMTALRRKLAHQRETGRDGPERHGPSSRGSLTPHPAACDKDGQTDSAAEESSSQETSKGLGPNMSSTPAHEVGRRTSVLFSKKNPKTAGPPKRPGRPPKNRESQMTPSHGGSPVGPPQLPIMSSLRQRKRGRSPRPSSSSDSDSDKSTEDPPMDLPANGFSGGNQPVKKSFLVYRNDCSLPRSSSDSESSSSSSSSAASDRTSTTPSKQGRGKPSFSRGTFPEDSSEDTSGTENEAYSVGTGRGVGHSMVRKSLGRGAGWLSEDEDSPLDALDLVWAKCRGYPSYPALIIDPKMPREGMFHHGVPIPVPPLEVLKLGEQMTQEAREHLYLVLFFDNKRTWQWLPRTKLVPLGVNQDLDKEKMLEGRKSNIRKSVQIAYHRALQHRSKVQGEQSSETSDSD

Chain of Fibroblast growth factor receptor 3 (Homo sapiens) (P22607 23-806 limits assumed): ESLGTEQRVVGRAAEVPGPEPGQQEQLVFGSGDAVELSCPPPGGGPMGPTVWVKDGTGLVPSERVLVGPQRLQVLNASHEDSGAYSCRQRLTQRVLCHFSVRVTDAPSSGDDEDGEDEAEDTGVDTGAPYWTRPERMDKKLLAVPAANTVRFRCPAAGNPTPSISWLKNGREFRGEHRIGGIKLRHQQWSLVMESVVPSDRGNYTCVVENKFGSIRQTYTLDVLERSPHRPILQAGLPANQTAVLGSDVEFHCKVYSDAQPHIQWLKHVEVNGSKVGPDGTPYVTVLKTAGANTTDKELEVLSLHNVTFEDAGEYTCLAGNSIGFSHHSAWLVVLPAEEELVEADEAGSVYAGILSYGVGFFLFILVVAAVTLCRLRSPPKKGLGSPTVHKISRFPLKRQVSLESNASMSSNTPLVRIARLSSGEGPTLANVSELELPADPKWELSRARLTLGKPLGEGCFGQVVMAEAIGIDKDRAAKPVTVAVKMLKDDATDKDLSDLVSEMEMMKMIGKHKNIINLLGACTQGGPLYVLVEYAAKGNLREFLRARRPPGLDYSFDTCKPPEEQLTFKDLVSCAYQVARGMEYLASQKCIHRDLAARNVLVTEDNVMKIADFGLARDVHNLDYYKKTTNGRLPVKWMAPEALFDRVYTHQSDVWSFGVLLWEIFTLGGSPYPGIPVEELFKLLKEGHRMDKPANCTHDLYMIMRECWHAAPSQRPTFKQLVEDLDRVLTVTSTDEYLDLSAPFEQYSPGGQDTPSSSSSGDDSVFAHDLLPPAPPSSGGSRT

SMILES	ΔTm [1]	ΔTm [2]
N#Cc1ccc(COc2ccc(Br)cc2CNCCO)cn1	0.63 °C	0.18 °C
Oc1c(CN2CCCC2)cc(COCc2ccccc2)c2cccnc12	0.61 °C	-2.08 °C
O=S(=O)(Nc1ccc(C(O)(C(F)(F)F)C(F)(F)F)cc1)c1cccs1	0.59 °C	-1.54 °C
COCCN1CCN(CCn2ccc(Nc3ncc4c(n3)-c3c(nn(C)c3-c3ccccc3)C[C@H]4C)n2)CC1	3.58 °C	-0.48 °C
CCC(=O)N[C@@H]1CC[C@H](C(=O)N(C)c2ccc(-c3nc4ccccc4o3)cc2)C1	0.71 °C	-1.58 °C
CC(=O)c1ccc2c(c1)/C(=C(/Nc1cccc(C#N)c1)c1ccc3c(c1)OCCO3)C(=O)N2	4 °C	-0.95 °C
Cc1nccc(COC(=O)N2C[C@@H]3[C@@H](CNC(=O)c4ccc5[nH]nnc5c4)[C@@H]3C2)n1	0.43 °C	-2.37 °C
CC(=O)c1c(C)c2cnc(Nc3ccc(N4CCN(CCCCNC(=O)COc5cccc6c5C(=O)N(C5CCC(=O)NC5=O)C6=O)CC4)cn3)nc2n(C2CCCC2)c1=O (configuration not stated)	0.48 °C	-1.22 °C
Cc1ncsc1-c1ccc(CNC(=O)[C@@H]2C[C@H](O)CN2C(=O)[C@@H](NC(=O)C2(F)CC2)C(C)(C)C)c(OCCOc2ccc(CN3CCN(c4cc(-c5ccccc5O)nnc4N)CC3)cc2)c1 (relative stereo)	-0.13 °C	4.18 °C
C[C@@H](Oc1cc(-n2cnc3ccc(OC4CCN(C)CC4)cc32)sc1C(N)=O)c1ccccc1Cl	3.37 °C	0.36 °C
CCc1nc(C2CCC2)n2nc(-c3ccccc3)[nH]c(=O)c12	0.69 °C	-2.47 °C
CN1C(=O)[C@@H](NC(=O)c2cc(Cc3ccccc3)on2)COc2ccccc21	-2.65 °C	-1.87 °C
CC(=O)Nc1ncc(CN2CCC[C@H](Cc3cc(C)nc(C)c3)C2)s1	1 °C	0.17 °C
Cc1cc([N+](=O)[O-])c(NS(=O)(=O)c2cccc(C(=O)O)c2)cc1-c1cccnc1	0.67 °C	0.37 °C
COc1ccc(CSc2nnc(-c3ccc4ncsc4c3)o2)cc1C(F)(F)F	-7.8 °C	-1.83 °C
CC(C)N(CCCCOCC(=O)O)c1cnc(-c2ccccc2)c(-c2ccccc2)n1	-0.51 °C	-4.18 °C
Nc1nccc(-c2c(-c3ccc(F)cc3)ncn2C2CCN(Cc3ccon3)CC2)n1	0.95 °C	-1.77 °C
O=C1NC(=NCc2cccs2)SC1=Cc1ccc2ncccc2c1	0.61 °C	-1.16 °C
COc1ccccc1Nc1nc(-c2nn(Cc3c(F)cc(OCCCO)cc3F)c3ccccc23)ncc1OC	0.41 °C	-1.09 °C
O=C1CCCc2[nH]c(-c3ccnc(NCC4CC4)c3)c(Nc3ccccc3)c21	0.77 °C	-3.57 °C

SMILES	ΔTm [1]	ΔTm [2]
CN(C)C(=O)Cn1cc(-c2ccc(-c3nnc4ccccn34)cc2)cn1	0.47 °C	-2.13 °C
COc1ccc(S(=O)(=O)N2CCOCC2)cc1Nc1ccc2c(n1)N(C1CCOCC1)[C@H](C)C(=O)N2C	0.08 °C	0.21 °C
CNc1nc(-c2cc(C(=O)N3CCN(Cc4ccc(Cl)cc4)CC3)c(Cl)cn2)cs1	0.37 °C	-1.62 °C
CN[C@@H](C)C(=O)N[C@H](C(=O)N1CCC[C@H]1C(=O)N[C@H](C(=O)NCCCCCCNC(=O)[C@@H](NC(=O)[C@@H]1CCCN1C(=O)[C@@H](NC(=O)[C@H](C)NC)C1CCCCC1)C(c1ccccc1)c1ccccc1)C(c1ccccc1)c1ccccc1)C1CCCCC1 (I: H-[NMeA][Chg]P[Dip] / II: H-[NMeA][Chg]P[Dip]; linker I:C-II:C via Hexamethylenediamine)	0.66 °C	-2.83 °C
COc1ccc(C(F)(F)F)cc1NC(=O)Nc1ccc(Oc2cc(C)nc(N)n2)c2ccccc12	2.41 °C	1.59 °C
CC(=O)c1c(C)c2cnc(Nc3ccc(N4CCN(CCOCCOCCOCCNC(=O)COc5cccc6c5C(=O)N(C5CCC(=O)NC5=O)C6=O)CC4)cn3)nc2n(C2CCCC2)c1=O (configuration not stated)	0.48 °C	-1.99 °C
CN(C)CCCN1c2ccccc2Sc2ccc(Cl)cc21	0.65 °C	-1.01 °C
CCCN1CCC(C#N)(NC(=O)[C@H](CC(C)(C)C)NC(=O)N2CCOCC2)CC1	0.37 °C	-2.18 °C
Cc1cc(CN)cc(C)c1-c1ncn(C)c1-c1cncn1C	0.44 °C	-1.81 °C
Nc1ncc2c(n1)-c1c([nH]c3ccc(C4CC4)cc13)CCCC2	0.81 °C	-1.74 °C
CCN1CCN(Cc2ccc(Nc3ncc(F)c(-c4cc(F)c5nc(C)n(C(C)C)c5c4)n3)nc2)CC1	3.23 °C	-1.26 °C
Cc1csc(S(=O)(=O)N(CC(C)C)c2cc3c(cc2OCc2ccc(C(=O)O)cc2)CCC3)n1	0.12 °C	-3.17 °C
CN(C)C(=O)c1sc2nc(N3CCC(S(C)(=O)=O)CC3)cc(C(F)(F)F)c2c1N	0.65 °C and 1.05 °C	-2.57 °C and -1.49 °C
COc1ccc(C(=O)N[C@H](C)c2cccc(C(=O)Nc3nc4c(s3)CN(C)CC4)c2)cc1C	0.97 °C	-0.23 °C
CCS(=O)(=O)Nc1cccc(Oc2cncc(Nc3ccc(I)cc3F)c2C(N)=O)c1	1.17 °C	-2.79 °C
Fc1ccc(-c2nc(-c3c(F)cccc3F)[nH]c2-c2ccncc2)cc1	2.21 °C	0.63 °C
CCO[C@H](COc1ccc(C(F)(F)F)cc1)CSc1ccc(OCC(=O)O)c(C)c1	0.48 °C	-0.87 °C
Cc1[nH]nc(C(F)(F)F)c1Cc1sc2c(c1C(=O)N1C[C@](C)(O)CO1)c(=O)n(C)c(=O)n2C(C)C	0.52 °C	-1.85 °C
C=CC1C[C@]1(NC(=O)[C@@H]1C[C@@H](Oc2cc(-c3csc(NC(=O)C(C)C)n3)nc3c(Br)c(OC)ccc23)CN1C(=O)[C@@H](NC(=O)OC1CCCC1)C(C)(C)C)C(=O)O (some centres not stated)	1.41 °C	-2.59 °C
O=C(CNC(=O)c1ccc(-c2ccccc2)cc1)NC1CCCc2ccccc21 (configuration not stated)	0.59 °C	-4.59 °C

SMILES	ΔTm [1]	ΔTm [2]
CN[C@@H](C)C(=O)N[C@H](C(=O)N1CCC[C@H]1C(=O)Nc1sc(-c2ncco2)nc1-c1ccccc1)C1CCCCC1	0.43 °C	-1.67 °C
O=C(Cc1ccccc1)Nc1nnc(N2CC[C@@H]3[C@H]2CN3c2cccnn2)s1	0.51 °C	-0.69 °C
Cn1cc(-n2cnc3c(NCc4nc5cc(Cl)c(Cl)cc5[nH]4)nc(N4CCOCC4)nc32)cn1	0.69 °C	-0.07 °C
C[C@@H](COCCC(=O)N1CCN(c2ncc(C(F)(F)F)cn2)CC1)Nc1cn[nH]c(=O)c1C(F)(F)F	0.48 °C	-0.15 °C
COc1ccccc1-c1cc(Nc2cccc(CS(N)(=O)=O)c2)ncn1	0.74 °C	-0.77 °C
CC1(C)C(=O)N([C@H]2CCc3c(O)cccc32)c2nc(Nc3cccc(CN4CCCC4)c3)ncc21	9.18 °C	-1.23 °C
CC(C)NC(=O)[C@H]1CCC[C@H]1Nc1nc(Nc2ccc(CN(C)C)cc2)ncc1Br	7.35 °C	-1.84 °C
CCS(=O)(=O)Nc1cccc(Oc2cc(F)cc(Nc3ccc(I)cc3F)c2NS(=O)(=O)C2CC2)c1	-1.54 °C	-1.34 °C
Cc1ccc(-n2nc(C(C)(C)C)cc2NC(=O)Nc2ccccc2F)cc1	2.28 °C	-0.3 °C
COc1ccc(-c2cc3c(C)nc(N)nc3n([C@H]3CC[C@H](OCCO)CC3)c2=O)cn1	0.24 °C	0.08 °C
Nc1ncnc2[nH]c(-c3ccccc3)nc12	1.78 °C	-0.39 °C
CCNc1ccc(-c2nn(-c3ccccc3C)c3c2C(C)Cc2nc(NC(=O)OC)sc2-3)cn1 (configuration not stated)	0.96 °C	-1.43 °C
CNc1oc(-c2cccc3ccccc23)nc1C#N	0.61 °C	-2.17 °C
CC(C)N1CCN(Cc2cnc(-c3cc(-c4cccc5[nH]ccc45)cc4[nH]ncc34)o2)CC1	1.84 °C	0.22 °C
CCCS(=O)(=O)Nc1ccc(F)c(Nc2ncnc3cnc(-n4cnc(C)c4)nc23)c1F	1.06 °C	0.01 °C
Cn1c(C2(NC(=O)c3ccc4c(C5CCCC5)c(-c5ncc(Br)cn5)n(C)c4c3)CCC2)nc2ccc(/C=C/C(=O)O)cc21	-0.02 °C and -0.48 °C	-4.81 °C and -4.1 °C
C[C@]12CC[C@@H]3c4ccc(O)cc4CC[C@H]3[C@@H]1C[C@H]1OC(=O)C[C@]12O	0.36 °C	-1.41 °C
N[C@H](C(=O)O)[C@@H]1CC(Cl)=NO1	0.45 °C	-1.19 °C
C/C=C1\C(=O)CC2C3CCC4=CC(=O)CC[C@]4(C)C3CC[C@]12C (some centres not stated)	–	-1.36 °C
